Laboratory results published in patent US20100280047A1, “SALTS OF ACTIVE INGREDIENTS WITH POLYMERIC COUNTER-IONS” (BASF SE, priority 2007, published 2010).

What was measured:
[1] = Saturation solubility of haloperidol in aqueous polymer solutions (HPLC of filtrate); format: physicochemical
Procedure: 1.0 g of haloperidol (free base) was added to 100.0 ml of aqueous polymer solution and stirred for 72 h. […] The undissolved amount of haloperidol was filtered off. The content of haloperidol in the filtrate was determined by HPLC.
For comparison, the saturation solubility of haloperidol was determined in demineralized water, as well as in hydrochloric acid. In the latter case, the corresponding haloperidol hydrochloride is formed.

[2] = Saturation solubility of loperamide in aqueous polymer solutions (HPLC of filtrate); format: physicochemical
Procedure: 1.0 g of loperamide (free base) was added to 100.0 ml of aqueous polymer solution and stirred for 72 h. […] The undissolved amount of loperamide was filtered off. The content of loperamide in the filtrate was determined by HPLC.
For comparison, the saturation solubility of loperamide was determined in demineralized water, as well as in hydrochloric acid. In the case of the latter, the corresponding loperamide hydrochloride is formed.

| Concentration of dissolved haloperidol ([1]; 10% by wt. polymer D in water, stirred 72 h, pH of filtered solution 3.2) [µg/mL] | Concentration of dissolved haloperidol ([1]; 20% by wt. polymer A in water, stirred 72 h, pH of filtered solution 3.0) [µg/mL] | Concentration of dissolved haloperidol ([1]; 20% by wt. polymer C in water, stirred 72 h, pH of filtered solution 3.3) [µg/mL] | Concentration of dissolved haloperidol ([1]; 20% by wt. polymer D in water, stirred 72 h, pH of filtered solution 3.0) [µg/mL] | Concentration of dissolved haloperidol ([1]; 20% solution of polymer A plus NaOH to pH 10, pH of filtered solution 10.1) [µg/mL] | Concentration of dissolved haloperidol ([1]; demineralized water, 0% polymer, stirred 72 h, pH of filtered solution 7.5) [µg/mL] | Concentration of dissolved haloperidol ([1]; hydrochloric acid 10%, no polymer (haloperidol hydrochloride is formed)) [µg/mL] | SMILES | Concentration of dissolved loperamide ([2]; 10% by wt. polymer A in water, stirred 72 h, pH of filtered solution 2.5) [µg/mL] | Concentration of dissolved loperamide ([2]; 10% by wt. polymer B in water, stirred 72 h, pH of filtered solution 2.0) [µg/mL] | Concentration of dissolved loperamide ([2]; 20% by wt. polymer A in water, stirred 72 h) [µg/mL] | Concentration of dissolved loperamide ([2]; 20% by wt. polymer D in water, stirred 72 h, pH of filtered solution 1.9) [µg/mL] | Concentration of dissolved loperamide ([2]; demineralized water, 0% polymer, stirred 72 h) [µg/mL] | Concentration of dissolved loperamide ([2]; hydrochloric acid 10%, no polymer (loperamide hydrochloride is formed)) [µg/mL] |
| --- | --- | --- | --- | --- | --- | --- | --- | --- | --- | --- | --- | --- | --- |
| 5200 | 10300 | 7700 | 15100 | <74 | <17.8 | <16 | O=C(CCCN1CCC(O)(c2ccc(Cl)cc2)CC1)c1ccc(F)cc1 [haloperidol] |  |  |  |  |  |  |
|  |  |  |  |  |  |  | CN(C)C(=O)C(CCN1CCC(O)(c2ccc(Cl)cc2)CC1)(c1ccccc1)c1ccccc1 [loperamide] | 6200 | 3900 | 7600 | 5900 | <17 | <14.9 |
